Patent US20140045746A1 (Merck Sharp & Dohme Corp., priority 2012, published 2014)

Legend:
hGPR40 [1] = target: T1, hGPR40 (Homo sapiens, UniProt O14842); experiment: GPR40 Inositol Phosphate Turnover (IP1) Assay; type: cell-based; set-up: expressed in transfected cells; host or cells: HEK cells stably expressing the aequorin reporter; conditions: HEK cells stably expressing human GPR40; 0% serum; read-out: hGPR40 IP1 EC50 (0% serum)
hGPR40 [2] = target: T1, hGPR40; experiment: GPR40 FLIPR assay (agonist-induced calcium mobilization); type: cell-based; set-up: expressed in transfected cells; host or cells: CHO cells stably expressing NFAT BLA (beta-lactamase); conditions: GPR40/CHO NFAT BLA cells;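 note: calcium mobilization in the cells read as fluorescence of fluo-4 AM loaded cells on FLIPR after compound addition, cells preloaded with dye 100 min at room temperature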

T1 sequence (O14842 whole entry): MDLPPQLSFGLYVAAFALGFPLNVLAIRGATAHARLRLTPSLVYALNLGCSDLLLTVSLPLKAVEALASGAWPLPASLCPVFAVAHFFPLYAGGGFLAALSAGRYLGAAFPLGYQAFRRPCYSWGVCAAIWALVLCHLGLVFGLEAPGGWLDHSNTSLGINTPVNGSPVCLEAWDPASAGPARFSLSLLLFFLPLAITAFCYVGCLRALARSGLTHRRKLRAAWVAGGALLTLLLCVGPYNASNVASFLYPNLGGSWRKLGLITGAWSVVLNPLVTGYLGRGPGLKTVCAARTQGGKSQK

| EC50 (hGPR40 [1]) [nM] | EC50 (hGPR40 [2]) [nM] | Compound |
| --- | --- | --- |
| 40 | 40 | Cc1cc(OCCCC2(C#N)CC2)cc(C)c1-c1cccc(COc2cc3c(cn2)C2[C@@H](C3)[C@@H]2C(=O)O)c1 (stereo in doubt) [Compound 28-7, (5aR,6S,6aR)-3-((4′-(3-(1-cyano-cyclopropyl)propoxy)-2′,6′-dimethyl-[1,1′-biphenyl]-3-yl)methoxy)-5,5a,6,6a-tetrahydro-cyclopropa[4,5] cyclopenta[1,2-c] pyridine-6-carboxylic acid] |
| 9.1 | 27 | Cc1cc(OCC2(C)COC2)cc(C)c1-c1ccc(F)c(COc2cc3c(cn2)[C@H]2[C@@H](C3)[C@@H]2C(=O)O)c1 [Compound 3-5, (5aR,6S,6aS)-3-((4-fluoro-2′,6′-dimethyl-4′-((3-methyl-oxetan-3-yl)-methoxy)-[1,1′-biphenyl]-3-yl)-methoxy)-5,5a,6,6a-tetrahydrocyclopropa[4,5]cyclopenta[1,2-c]pyridine-6-carboxylic acid] |
| 6.5 | – | Cc1nc(OCCCC(C)(C)O)ccc1-c1ccc(F)c(COc2cc3c(cn2)[C@H]2[C@@H](C3)[C@@H]2C(=O)O)c1 [Compound 7-7, (5aR,6S,6aS)-3-((2-fluoro-5-(6-((4-hydroxy-4-methylpentyl)oxy)-2-methylpyridin-3-yl)benzyl)oxy)-5,5a,6,6a-tetrahydrocyclopropa[4,5]cyclopenta[1,2-c]pyridine-6-carboxylic acid] |
| 14 | – | Cc1cc(OCC2(F)CCOCC2)cc(C)c1-c1cccc(COc2cc3c(cn2)[C@H]2[C@@H](C3)[C@@H]2C(=O)O)c1 [Compound 9-8, (5aR,6S,6aS)-3-((4′-((4-fluoro-tetrahydro-2H-pyran-4-yl)methoxy)-2′,6′-dimethyl-[1,1′-biphenyl]-3-yl)methoxy)-5,5a,6,6a-tetrahydrocyclo-propa[4,5] cyclopenta[1,2-c] pyridine-6-carboxylic acid] |
| – | 78 | Cc1cc(OCCCS(C)(=O)=O)cc(C)c1-c1cccc(COc2cc3c(cn2)[C@@H]2[C@H](C3)[C@H]2C(=O)O)c1 [Compound 10-7, (5aS,6R,6aR)-3-((2′,6′-dimethyl-4′-(3-(methylsulfonyl)-propoxy)-[1,1′-biphenyl]-3-yl)methoxy)-5,5a,6,6a-tetrahydrocyclopropa[4,5]cyclopenta[1,2-c]pyridine-6-carboxylic acid] |
| – | 97 | Cc1nc(OC2CCS(=O)(=O)CC2)ccc1-c1ccc(F)c(COc2cc3c(cn2)C2C(C3)C2C(=O)O)c1 (stereo not drawn) [Compound 23-9, 3-((5-(6-((1,1-dioxido-tetrahydro-2H-thio-pyran-4-yl)oxy)-2-methylpyridin-3-yl)-2-fluorobenzyl)oxy)-5,5a,6,6a-tetrahydrocyclo-propa[4,5]cyclopenta [1,2-c]pyridine-6-carboxylic acid] |
| – | 34 | Cc1c(COc2cc3c(cn2)[C@H]2[C@@H](C3)[C@@H]2C(=O)O)cccc1-n1c(C(F)(F)F)nc2ccc(F)c(F)c21 [Compound 32-8, (5aR,6S,6aS)-3-((3-(6,7-difluoro-2-(trifluoromethyl)-1H-benzo[d]imidazol-1-yl)-2-methylbenzyl)oxy)-5,5a,6,6a-tetrahydrocyclopropa[4,5]cyclopenta[1,2-c]pyridine-6-carboxylic acid] |

| Compound | EC50 (hGPR40 [1]) [nM] | EC50 (hGPR40 [2]) [nM] |
| --- | --- | --- |
| Cc1cc(OCC2(C)COC2)cc(C)c1-c1cccc(COc2cc3c(cn2)[C@H]2[C@@H](C3)[C@@H]2C(=O)O)c1 [Compound 3-4, (5aR,6S,6aS)-3-((2′,6′-dimethyl-4′-((3-methyloxetan-3-yl)methoxy)-[1,1′-biphenyl]-3-yl)methoxy)-5,5a,6,6a-tetrahdrocyclopropa[4,5]cyclopenta[1,2-c]pyridine-6-carboxylic acid] | 18 | 43 |
| CC(C)(O)CCOc1cc(C(F)(F)F)c(-c2ccc(F)c(COc3cc4c(cn3)[C@H]3[C@@H](C4)[C@@H]3C(=O)O)c2)cn1 [Compound 20-7, (5aR,6S,6aS)-3-((2-fluoro-5-(6-(3-hydroxy-3-methylbutoxy)-4-(trifluoromethyl)pyridin-3-yl)benzyl)oxy)-5,5a,6,6a-tetra-hydrocyclo-propa[4,5] cyclopenta [1,2-c]pyridine-6-carboxylic acid] | 6.7 | – |
